# PubChem BioAssay AID328 (DTP/NCI, 2004)
# Where “and” joins values, the source holds several entries; their conditions need not be identical. Equal values may be shown once. Inconclusive results and toxic doses are left out.
# Test system: BDF1 mice, P388 leukemia ip, median survival T/C
# Experiment: NCI In Vivo Anticancer Drug Screen. Data for tumor model P388 Leukemia (intraperitoneal) in B6D2F1 (BDF1) mice
# Settings: endpoint: median survival time, higher = longer survival
# How it was run: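 Vehicle-dosed animals serve as the reference; survival of compound-dosed, tumour-implanted mice is divided by it.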
# [1] = dose: 100.0 mg/kg/injection, schedule: Q04DX003 (ip), vehicle: saline
# [2] = dose: 200.0 mg/kg/injection, schedule: Q04DX003 (ip), vehicle: saline
# [3] = dose: 400.0 mg/kg/injection, schedule: Q04DX003 (ip), vehicle: saline
# [4] = dose: 100.0 mg/kg/injection, schedule: Q01DX009 (ip), vehicle: saline with Tween-80
# [5] = dose: 100.0 mg/kg/injection, schedule: Q04DX003 (ip), vehicle: saline with Tween-80
# [6] = dose: 200.0 mg/kg/injection, schedule: Q01DX009 (ip), vehicle: saline with Tween-80
# [7] = dose: 200.0 mg/kg/injection, schedule: Q04DX003 (ip), vehicle: saline with Tween-80
# [8] = dose: 400.0 mg/kg/injection, schedule: Q01DX009 (ip), vehicle: saline with Tween-80
# [9] = dose: 400.0 mg/kg/injection, schedule: Q04DX003 (ip), vehicle: saline with Tween-80
# [10] = dose: 50.0 mg/kg/injection, schedule: Q01DX009 (ip), vehicle: saline
# [11] = dose: 100.0 mg/kg/injection, schedule: Q01DX009 (ip), vehicle: saline
# [12] = dose: 200.0 mg/kg/injection, schedule: Q01DX009 (ip), vehicle: saline
# [13] = dose: 100.0 mg/kg/injection, schedule: Q01DX009 (ip), vehicle: Klucel (hydroxypropylcellulose) (HPC)
# [14] = dose: 100.0 mg/kg/injection, schedule: Q04DX003 (ip), vehicle: Klucel (hydroxypropylcellulose) (HPC)
# [15] = dose: 200.0 mg/kg/injection, schedule: Q04DX003 (ip), vehicle: Klucel (hydroxypropylcellulose) (HPC)
# [16] = dose: 400.0 mg/kg/injection, schedule: Q04DX003 (ip), vehicle: Klucel (hydroxypropylcellulose) (HPC)
# [17] = dose: 200.0 mg/kg/injection, schedule: Q01DX009 (ip), vehicle: Klucel (hydroxypropylcellulose) (HPC)
# [18] = dose: 50.0 mg/kg/injection, schedule: Q01DX009 (ip), vehicle: saline with Tween-80
smiles,measurement,setting,value
O=C1CCCN1C1=CC2=C(CCc3ccccc32)S(=O)(=O)O1,T/C,[1],90 % of control
same,T/C,[2],100 % of control
same,T/C,[3],100 % of control
Cc1cc(C)cc(NC(=O)c2ccccc2N)c1,T/C,[4],95 % of control
same,T/C,[5],109 % of control
same,T/C,[6],95 % of control
same,T/C,[7],90 % of control
same,T/C,[8],104 % of control
same,T/C,[9],100 % of control
NC(N)=NCCCC(=O)O,T/C,[10],104 % of control
same,T/C,[11],94 % of control and 103 % of control
same,T/C,[1],95 % of control
same,T/C,[12],101 % of control and 103 % of control
same,T/C,[2],100 % of control
same,T/C,"dose: 400.0 mg/kg/injection, schedule: Q01DX009 (ip), vehicle: saline",92 % of control and 106 % of control
same,T/C,[3],104 % of control
C#CC[N+]1=CN(c2ccc(C)cc2)Cc2cc(C)ccc21,T/C,"dose: 25.0 mg/kg/injection, schedule: Q04DX003 (ip), vehicle: Klucel (hydroxypropylcellulose) (HPC)",105 % of control
same,T/C,"dose: 50.0 mg/kg/injection, schedule: Q01DX009 (ip), vehicle: Klucel (hydroxypropylcellulose) (HPC)",122 % of control
same,T/C,"dose: 50.0 mg/kg/injection, schedule: Q04DX003 (ip), vehicle: Klucel (hydroxypropylcellulose) (HPC)",100 % of control
same,T/C,[13],122 % of control
same,T/C,[14],95 % of control and 100 % of control and 109 % of control
same,T/C,"dose: 150.0 mg/kg/injection, schedule: Q04DX003 (ip), vehicle: Klucel (hydroxypropylcellulose) (HPC)",100 % of control and 110 % of control
same,T/C,"dose: 225.0 mg/kg/injection, schedule: Q04DX003 (ip), vehicle: Klucel (hydroxypropylcellulose) (HPC)",110 % of control
NC(N)=Nc1ccc(C(=O)Nc2ccc([N+](=O)[O-])cc2)cc1,T/C,[10],101 % of control
same,T/C,[11],103 % of control
same,T/C,[1],97 % of control
same,T/C,[12],91 % of control
same,T/C,[2],91 % of control
same,T/C,[3],100 % of control
N=C(N)c1ccc(OCCCOc2ccc(C(=N)N)cc2Br)c(Br)c1,T/C,"dose: 2.2 mg/kg/injection, schedule: Q01DX009 (ip), vehicle: saline",100 % of control
same,T/C,"dose: 3.3 mg/kg/injection, schedule: Q01DX009 (ip), vehicle: saline",118 % of control
same,T/C,"dose: 5.0 mg/kg/injection, schedule: Q01DX009 (ip), vehicle: saline",118 % of control
same,T/C,"dose: 25.0 mg/kg/injection, schedule: Q01DX009 (ip), vehicle: saline sonified",122 % of control
BrCc1ccc2c3c(ccc(CBr)c13)CC2,T/C,"dose: 0.92 mg/kg/injection, schedule: Q04DX003 (ip), vehicle: saline",113 % of control
same,T/C,"dose: 3.1 mg/kg/injection, schedule: Q04DX003 (ip), vehicle: saline",120 % of control
same,T/C,"dose: 17.0 mg/kg/injection, schedule: Q04DX003 (ip), vehicle: Klucel (hydroxypropylcellulose) (HPC)",154 % of control
same,T/C,"dose: 25.0 mg/kg/injection, schedule: Q01DX009 (ip), vehicle: Klucel (hydroxypropylcellulose) (HPC)",118 % of control
same,T/C,"dose: 75.0 mg/kg/injection, schedule: Q01DX009 (ip), vehicle: Klucel (hydroxypropylcellulose) (HPC)",118 % of control
same,T/C,[13],95 % of control
same,T/C,[14],150 % of control
same,T/C,[15],154 % of control
same,T/C,"dose: 300.0 mg/kg/injection, schedule: Q04DX003 (ip), vehicle: Klucel (hydroxypropylcellulose) (HPC)",87 % of control and 100 % of control
same,T/C,"dose: 300.0 mg/kg/injection, schedule: Q04DX003 (ip), vehicle: saline",118 % of control
same,T/C,[16],122 % of control
CCC1CCN2CCc3c([nH]c4ccccc34)C(C(=O)OC)(c3cc4c(cc3OC)N(C)C3C(O)(C(=O)OC)C(OC(C)=O)C5(CC)CCCN6CCC43C65)CC2C1 (stereo unspecified),T/C,"dose: 0.06 mg/kg/injection, schedule: Q01DX009 (ip), vehicle: water",95 % of control
same,T/C,"dose: 0.12 mg/kg/injection, schedule: Q01DX009 (ip), vehicle: water",100 % of control
same,T/C,"dose: 0.25 mg/kg/injection, schedule: Q01DX009 (ip), vehicle: water",104 % of control
same,T/C,"dose: 0.5 mg/kg/injection, schedule: Q01DX009 (ip), vehicle: water",95 % of control
same,T/C,"dose: 1.0 mg/kg/injection, schedule: Q01DX009 (ip), vehicle: water",86 % of control and 104 % of control
same,T/C,"dose: 2.0 mg/kg/injection, schedule: Q01DX009 (ip), vehicle: water",90 % of control and 95 % of control
same,T/C,"dose: 4.0 mg/kg/injection, schedule: Q01DX009 (ip), vehicle: water",90 % of control
same,T/C,"dose: 8.0 mg/kg/injection, schedule: Q01DX009 (ip), vehicle: water",95 % of control
Clc1ccc(N=Cc2ccccc2)cc1,T/C,[13],90 % of control
same,T/C,[14],108 % of control
same,T/C,[17],90 % of control
same,T/C,[15],95 % of control
same,T/C,[16],100 % of control
COC(=O)/C(C)=C/C1N=C1c1ccccc1 (stereo unspecified),T/C,"dose: 100.0 mg/kg/injection, schedule: Q01DX001 (ip), vehicle: saline with Tween-80",120 % of control
O=c1[nH]cnc2n[nH]nc12,T/C,[4],108 % of control
same,T/C,[5],104 % of control
same,T/C,[6],124 % of control
same,T/C,[7],113 % of control
same,T/C,[8],100 % of control
same,T/C,[9],104 % of control
CS(=O)(=O)OCCCl,T/C,"dose: 18.8 mg/kg/injection, schedule: Q01DX010 (ip), vehicle: saline",105 % of control and 120 % of control
same,T/C,"dose: 37.5 mg/kg/injection, schedule: Q01DX010 (ip), vehicle: saline",100 % of control and 110 % of control
same,T/C,"dose: 75.0 mg/kg/injection, schedule: Q01DX010 (ip), vehicle: saline",100 % of control
COc1ccc2c(c1C)CCC1(CO)C(C(C)=O)=CCC21 (stereo unspecified),T/C,[13],109 % of control
same,T/C,[14],100 % of control
same,T/C,[17],95 % of control
same,T/C,[15],100 % of control
same,T/C,"dose: 400.0 mg/kg/injection, schedule: Q01DX009 (ip), vehicle: Klucel (hydroxypropylcellulose) (HPC)",100 % of control
same,T/C,[16],100 % of control
CN(C)C(CC(=O)c1ccccc1)C(=O)O (stereo unspecified),T/C,"dose: 50.0 mg/kg/injection, schedule: Q04DX003 (ip), vehicle: saline sonified",104 % of control
CCCCNc1ccc([N+](=O)[O-])cc1[N+](=O)[O-],T/C,"dose: 50.0 mg/kg/injection, schedule: Q01DX009 (ip), vehicle: other",95 % of control
same,T/C,"dose: 100.0 mg/kg/injection, schedule: Q01DX009 (ip), vehicle: other",101 % of control
same,T/C,"dose: 200.0 mg/kg/injection, schedule: Q01DX009 (ip), vehicle: other",105 % of control
C/C(=N\NC(=O)C(=O)N/N=C(\C)c1ccccc1)c1ccccc1,T/C,[18],96 % of control
same,T/C,[4],91 % of control
Cc1ccc(-c2cc(-c3ccccc3)n(-c3ccccc3)n2)cc1,T/C,"dose: 264.0 mg/kg/injection, schedule: Q04DX003 (ip), vehicle: Klucel (hydroxypropylcellulose) (HPC)",108 % of control and 109 % of control
same,T/C,[16],104 % of control and 116 % of control
S=c1nn[nH]n1-c1ccccc1.[Zn+2],T/C,[18],109 % of control
same,T/C,[4],118 % of control
O=C1C=C(N2CC2)C(=O)C(N2CC2)=C1N1CC1,T/C,"dose: 0.02 mg/kg/injection, schedule: Q01DX009 (ip), vehicle: saline",265 % of control and 328 % of control
same,T/C,"dose: 0.04 mg/kg/injection, schedule: Q01DX009 (ip), vehicle: saline",98 % of control
Nc1nc(Cl)c(C=O)c(Cl)n1,T/C,[18],241 % of control
O=c1[nH]c2ccc(Br)cc2c(=O)o1,T/C,"dose: 25.0 mg/kg/injection, schedule: Q01DX001 (ip), vehicle: Klucel (hydroxypropylcellulose) (HPC)",104 % of control
same,T/C,"dose: 35.0 mg/kg/injection, schedule: Q01DX001 (ip), vehicle: Klucel (hydroxypropylcellulose) (HPC)",109 % of control
same,T/C,"dose: 50.0 mg/kg/injection, schedule: Q01DX001 (ip), vehicle: Klucel (hydroxypropylcellulose) (HPC)",104 % of control
same,T/C,"dose: 75.0 mg/kg/injection, schedule: Q01DX001 (ip), vehicle: Klucel (hydroxypropylcellulose) (HPC)",95 % of control
same,T/C,[4],150 % of control
same,T/C,"dose: 250.0 mg/kg/injection, schedule: Q01DX001 (ip), vehicle: Klucel (hydroxypropylcellulose) (HPC)",92 % of control
same,T/C,"dose: 400.0 mg/kg/injection, schedule: Q01DX001 (ip), vehicle: Klucel (hydroxypropylcellulose) (HPC)",88 % of control
N#Cc1c2c(c(O)[nH]c1=O)CCCC2,T/C,[4],120 % of control
same,T/C,[6],105 % of control
same,T/C,[8],120 % of control
c1csc(NC(Nc2nccs2)C2CCCCC2)n1,T/C,[18],101 % of control
same,T/C,[4],96 % of control
same,T/C,[6],96 % of control
CC(C(=O)O)C(=O)O.[NH-]C1CCCCC1[NH-].[Pt+2],T/C,"dose: 50.0 mg/kg/injection, schedule: Q04DX002 (ip), vehicle: Klucel (hydroxypropylcellulose) (HPC)",150 % of control
same,T/C,"dose: 200.0 mg/kg/injection, schedule: Q04DX002 (ip), vehicle: Klucel (hydroxypropylcellulose) (HPC)",203 % of control
